Read-outs that look alike come from different tables or passages of the source. Non-standard residues stand in square brackets, D forms with d. Residues, ends and D or L forms follow the SMILES beside them. *: point of attachment. Gly(octyl) = CCCCCCCC[C@H](N)C(=O)O; hTyr = N[C@@H](CCc1ccc(O)cc1)C(=O)O; hArg = N=C(N)NCCCC[C@H](N)C(=O)O; NHPhenethyl = c1ccc(CCN*)cc1; hLeu = CC(C)CC[C@H](N)C(=O)O
Legend:
Format in all cases: biochemical
[1] = biological target: T1, human neutrophil elastase (Homo sapiens, UniProt P08246); experiment: Inhibition of human neutrophil elastase (MeOSuc-AAPV-pNA hydrolysis)
T1 construct: purchased Serva Electrophoresis, Germany
T1 sequence (P08246 30-267): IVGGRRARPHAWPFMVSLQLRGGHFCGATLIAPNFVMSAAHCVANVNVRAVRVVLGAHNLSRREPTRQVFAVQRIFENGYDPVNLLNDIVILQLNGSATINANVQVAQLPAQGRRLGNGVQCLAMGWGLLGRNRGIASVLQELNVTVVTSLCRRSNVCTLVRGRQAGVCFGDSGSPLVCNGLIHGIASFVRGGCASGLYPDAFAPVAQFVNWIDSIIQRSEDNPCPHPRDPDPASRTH
Description: 2.2. Inhibition of Human Neutrophil Elastase
The ability of the peptides of the invention to inhibit the hydrolysis activity of human neutrophil elastase (Serva Electrophoresis, Germany) using the synthetic tetrapeptidic substrate MeOSuc-AAPV-pNA (Bachem, Switzerland) was determined as follows:
(§1) The above substrate (0.3 mM) and human neutrophil elastase (10 nM) were incubated at 37° C. with serial dilutions of the peptides (1% DMSO final) in assay buffer (50 mM Tris, pH 8, 300 mM NaCl, 0.01% Tween20). The release of pNA was followed by monitoring the change in absorbance at 405 nm for 30 minutes. Control assays with the same assay set-up as above, but without peptide, ran linearly. The dose-response data were fitted to the 4-parameter Hill equation providing the IC50 value using Graphpad (Prism 5).

[2] = biological target: T2, human proteinase 3 (Homo sapiens, UniProt P24158); experiment: Inhibition of human proteinase 3 (Boc-Ala-Ala-Nva-SBzl); details: for hNE/hPr3 selectivity: ratio of hPr3 IC50 to hNE IC50
T2 construct: purchased Elastin Products Company, USA
T2 sequence (P24158 28-248): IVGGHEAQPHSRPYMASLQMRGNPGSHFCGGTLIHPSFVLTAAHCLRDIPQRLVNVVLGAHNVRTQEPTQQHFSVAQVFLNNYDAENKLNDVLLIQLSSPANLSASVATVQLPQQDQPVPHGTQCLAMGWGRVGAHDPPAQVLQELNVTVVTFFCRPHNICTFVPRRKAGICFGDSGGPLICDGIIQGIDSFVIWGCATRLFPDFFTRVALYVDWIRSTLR
Description: 2.4. Inhibition of Human Proteinase 3
The inactivation of human proteinase 3 (Elastin Products Company, USA) by the peptides of the invention using synthetic tripeptidic substrate Boc-Ala-Ala-Nva-SBzl (Elastin Products Company, USA) was determined as follows:
as §1, with “(1 mM), 4,4′-dithiodipyridine (250 μM)” for “(0.3 mM)”, “proteinase 3” for “neutrophil elastase”, “(0.5%” for “(1%”, “pH7.4, 150” for “pH 8, 300”, “reaction process” for “release of pNA”, “340” for “405”

[3] = biological target: T3, porcine pancreatic elastase (Sus scrofa, UniProt P00772); experiment: Inhibition of porcine pancreatic elastase (MeOSuc-AAA-pNA hydrolysis); details: for hNE/PPE selectivity: ratio of PPE IC50 to hNE IC50
T3 construct: purchased Sigma, USA
Description: 2.3. Inhibition of Porcine Pancreatic Elastase
The ability of the peptides of the invention to inhibit the hydrolysis activity of porcine pancreatic elastase (Sigma, USA) using the synthetic tripeptidic substrate MeOSuc-AAA-pNA (Bachem, Switzerland) was determined as follows:
as §1, with “(1” for “(0.3”, “porcine pancreatic” for “neutrophil”, “(15” for “(10”, “(0.5%” for “(1%”, “pH8, 100” for “pH 8, 300”

[4] = 10 nM enzyme, 0.3 mM substrate, 37° C., pH 8, read-out: Human neutrophil elastase (hNE) IC50
[5] = 10 nM enzyme, 1 mM substrate, 37° C., pH7.4, read-out: Human proteinase 3 (hPr3) IC50
[6] = 15 nM enzyme, 1 mM substrate, 37° C., pH8, read-out: Porcine pancreatic elastase (PPE) IC50

T3 sequence (P00772 27-266): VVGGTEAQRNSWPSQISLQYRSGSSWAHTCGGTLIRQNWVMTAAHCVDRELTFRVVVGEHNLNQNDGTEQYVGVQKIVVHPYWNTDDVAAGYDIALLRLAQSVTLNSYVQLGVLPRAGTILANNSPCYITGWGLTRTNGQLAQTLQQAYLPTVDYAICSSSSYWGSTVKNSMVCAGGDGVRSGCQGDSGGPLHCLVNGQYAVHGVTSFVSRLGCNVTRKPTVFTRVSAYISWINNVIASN

| Structure (SMILES) | IC50 [1, 4] | IC50 [2, 5] | hNE/hPr3 selectivity [2] | IC50 [3, 6] | hNE/PPE selectivity [3] | IC50 [1] | IC50 [2] | IC50 [3] |
| --- | --- | --- | --- | --- | --- | --- | --- | --- |
| CC[C@H](C)[C@@H]1NC(=O)[C@H](CO)NC(=O)[C@H](C)NC(=O)[C@H]([C@@H](C)O)NC(=O)[C@H](CCC(=O)O)NC(=O)[C@H](CCCNC(=N)N)NC(=O)[C@@H]2CCCN2C(=O)[C@H]2CCCN2C(=O)[C@H]([C@@H](C)O)NC(=O)[C@H](CCCCN)NC(=O)[C@H](Cc2ccc(O)cc2)NC(=O)[C@@H]2CCCN2C(=O)[C@@H]2CCCN2C1=O [Example 13, Cyclo(-Arg-Glu-Thr-Ala-Ser-Ile-Pro-Pro-Tyr-Lys-Thr-^DPro-Pro-)] (cyclo(RETASIPPYKT[dP]P)) | 30.6 nM | > 100000 nM | >3268 | > 100000 nM | >3268 | – | – | – |
| CC[C@H](C)[C@@H]1NC(=O)[C@H](CO)NC(=O)[C@H](C)NC(=O)[C@H]([C@@H](C)O)NC(=O)[C@H](CCC(=O)O)NC(=O)[C@H](CCCNC(=N)N)NC(=O)[C@@H]2CCCN2C(=O)[C@H]2CCCN2C(=O)[C@H](CCC(C)C)NC(=O)[C@H](CCCCN)NC(=O)[C@H](CCC(N)=O)NC(=O)[C@@H]2CCCN2C(=O)[C@@H]2CCCN2C1=O [Example 10, Cyclo(-Arg-Glu-Thr-Ala-Ser-Ile-Pro-Pro-Gln-Lys-hLeu-^DPro-Pro-)] (cyclo(RETASIPPQK[hLeu][dP]P)) | 30 nM | > 100000 nM | >3333 | > 100000 nM | >3333 | – | – | – |
| CC[C@H](C)[C@@H]1NC(=O)[C@H](CO)NC(=O)[C@H](C)NC(=O)[C@H]([C@@H](C)O)NC(=O)[C@H](CCC(=O)O)NC(=O)[C@H](CCCNC(=N)N)NC(=O)[C@@H]2CCCN2C(=O)[C@H]2CCCN2C(=O)[C@H](Cc2c[nH]cn2)NC(=O)[C@H](CCCCN)NC(=O)[C@H](Cc2ccc(O)cc2)NC(=O)[C@@H]2CCCN2C(=O)[C@@H]2CCCN2C1=O [Example 14, Cyclo(-Arg-Glu-Thr-Ala-Ser-Ile-Pro-Pro-Tyr-Lys-His-^DPro-Pro-)] (cyclo(RETASIPPYKH[dP]P)) | 20.3 nM | 77600 nM | 3823 | 4650 nM | 229 | – | – | – |
| CC[C@H](C)[C@@H]1NC(=O)[C@H](CO)NC(=O)[C@H](C)NC(=O)[C@H]([C@@H](C)O)NC(=O)[C@H](C(C)C)NC(=O)[C@H](CCCNC(=N)N)NC(=O)[C@@H]2CCCN2C(=O)[C@H]2CCCN2C(=O)[C@H](Cc2ccc(O)cc2)NC(=O)[C@H](CCCCN)NC(=O)[C@H](CCC(N)=O)NC(=O)[C@@H]2CCCN2C(=O)[C@@H]2CCCN2C1=O [Example 18, Cyclo(-Arg-Val-Thr-Ala-Ser-Ile-Pro-Pro-Gln-Lys-Tyr-^DPro-Pro-)] (cyclo(RVTASIPPQKY[dP]P)) | 6.9 nM | 1800 nM | 261 | 7200 nM | 1043 | – | – | – |
| CCCCCCCC[C@@H]1NC(=O)[C@@H]2CCCN2C(=O)[C@H]2CCCN2C(=O)[C@H](CO)NC(=O)[C@H](CCCCN)NC(=O)[C@H](CCC(N)=O)NC(=O)[C@@H]2CCCN2C(=O)[C@@H]2CCCN2C(=O)[C@H]([C@@H](C)CC)NC(=O)[C@H](CO)NC(=O)[C@H](C)NC(=O)[C@H]([C@@H](C)O)NC(=O)[C@H](CCC(=O)O)NC1=O [Example 3, Cyclo(-OctGly-Glu-Thr-Ala-Ser-Ile-Pro-Pro-Gln-Lys-Ser-^DPro-Pro-)] (cyclo([Gly(octyl)]ETASIPPQKS[dP]P)) | 5.5 nM | 1440 nM | 262 | 790 nM | 144 | – | – | – |
| CCCCCCCC[C@@H]1NC(=O)[C@@H]2CCCN2C(=O)[C@H]2CCCN2C(=O)[C@H]([C@@H](C)O)NC(=O)[C@H](CCCCN)NC(=O)[C@H](Cc2ccc(O)cc2)NC(=O)[C@@H]2CCCN2C(=O)[C@@H]2CCCN2C(=O)[C@H]([C@@H](C)CC)NC(=O)[C@H](CO)NC(=O)[C@H](C)NC(=O)[C@H]([C@@H](C)O)NC(=O)[C@H](CCC(=O)O)NC1=O [Example 2, Cyclo(-OctGly-Glu-Thr-Ala-Ser-Ile-Pro-Pro-Tyr-Lys-Thr-^DPro-Pro-)] (cyclo([Gly(octyl)]ETASIPPYKT[dP]P)) | 5.4 nM | 1520 nM | 282 | 530 nM | 98 | – | – | – |
| CCCCCCCC[C@@H]1NC(=O)[C@@H]2CCCN2C(=O)[C@H]2CCCN2C(=O)[C@H]([C@@H](C)O)NC(=O)[C@H](CCCCN)NC(=O)[C@H](CCC(N)=O)NC(=O)[C@@H]2CCCN2C(=O)[C@@H]2CCCN2C(=O)[C@H]([C@@H](C)CC)NC(=O)[C@H](CO)NC(=O)[C@H](C)NC(=O)[C@H]([C@@H](C)O)NC(=O)[C@H](CCC(=O)O)NC1=O [Example 4, Cyclo(-OctGly-Glu-Thr-Ala-Ser-Ile-Pro-Pro-Gln-Lys-Thr-^DPro-Pro-)] (cyclo([Gly(octyl)]ETASIPPQKT[dP]P)) | 7.9 nM | 2150 nM | 272 | 2750 nM | 348 | – | – | – |
| CC[C@H](C)[C@@H]1NC(=O)[C@H](CO)NC(=O)[C@H](C)NC(=O)[C@H]([C@@H](C)O)NC(=O)[C@H](CCc2ccc(O)cc2)NC(=O)[C@H](CCCNC(=N)N)NC(=O)[C@@H]2CCCN2C(=O)[C@H]2CCCN2C(=O)[C@H](Cc2ccc(O)cc2)NC(=O)[C@H](CCCCN)NC(=O)[C@H](CCC(N)=O)NC(=O)[C@@H]2CCCN2C(=O)[C@@H]2CCCN2C1=O [Example 5, Cyclo(-Arg-hTyr-Thr-Ala-Ser-Ile-Pro-Pro-Gln-Lys-Tyr-^DPro-Pro-)] (cyclo(R[hTyr]TASIPPQKY[dP]P)) | 12.7 nM | 1710 nM | 135 | 1750 nM | 138 | – | – | – |
| CC[C@H](C)[C@@H]1NC(=O)[C@H](CO)NC(=O)[C@H](C)NC(=O)[C@H]([C@@H](C)O)NC(=O)[C@H](CCC(=O)O)NC(=O)[C@H](CCC(=O)NCCc2ccccc2)NC(=O)[C@@H]2CCCN2C(=O)[C@H]2CCCN2C(=O)[C@H](Cc2ccc(O)cc2)NC(=O)[C@H](CCCCN)NC(=O)[C@H](CCC(N)=O)NC(=O)[C@@H]2CCCN2C(=O)[C@@H]2CCCN2C1=O [Example 15, Cyclo(-Glu(Phenethyl)-Glu-Thr-Ala-Ser-Ile-Pro-Pro-Gln-Lys-Tyr-^DPro-Pro-)] (cyclo(E(NHPhenethyl)ETASIPPQKY[dP]P)) | – | – | 360 | – | 87 | 18.6 nM | 6690 nM | 1620 nM |
| CC[C@H](C)[C@@H]1NC(=O)[C@H](CO)NC(=O)[C@H](C)NC(=O)[C@H]([C@@H](C)O)NC(=O)[C@H](CCC(=O)O)NC(=O)[C@H](CCCCNC(=N)N)NC(=O)[C@@H]2CCCN2C(=O)[C@H]2CCCN2C(=O)[C@H]([C@@H](C)O)NC(=O)[C@H](CCCCN)NC(=O)[C@H](CCC(N)=O)NC(=O)[C@@H]2CCCN2C(=O)[C@@H]2CCCN2C1=O [Example 9, Cyclo(-hArg-Glu-Thr-Ala-Ser-Ile-Pro-Pro-Gln-Lys-Thr-^DPro-Pro-)] (cyclo([hArg]ETASIPPQKT[dP]P)) | 23.7 nM | 70100 nM | 2958 | 83400 nM | 3519 | – | – | – |

— patent US10723765B2, “Beta-hairpin peptidomimetics as selective elastase inhibitors” (POLYPHOR AG, priority 2013, dated 2020)
